Measured values: ChEMBL document CHEMBL1134333, “[3H]N-2-(4-(N-benzamido)phenyl)propyl-2-propanesulfonamide: a novel AMPA receptor potentiator and radioligand” (J Med Chem, 2001)

Tests used:
[1] = molecular target: T1, Glutamate receptor ionotropic, AMPA (Rattus norvegicus, UniProt P19490+P19491+P19492+P19493); experiment: Effective concentration of AMPA required to increase specific binding of [3H]6 to rat cerebral cortical membranes.
[2] = molecular target: T1, Glutamate receptor ionotropic, AMPA; experiment: Effective concentration of glutamate required to increase specific binding of [3H]6 to rat cerebral cortical membranes.
[3] = molecular target: T1, Glutamate receptor ionotropic, AMPA; experiment: Inhibition of binding to AMPA receptor from rat cerebral cortex; format: tissue-based

| SMILES | EC50 [1] [µM] | EC50 [2] [µM] | IC50 [3] [µM] |
| --- | --- | --- | --- |
| CC(CNS(=O)(=O)C(C)C)c1ccc(NC(=O)c2ccccc2)cc1 (centres undefined) | 5.5 | 31 | 0.17 |
| NS(=O)(=O)c1cc2c(cc1Cl)NC(C1CC3C=CC1C3)NS2(=O)=O (centres undefined) [CYCLOTHIAZIDE] | – | – | 6.1 |
